Laboratory results from the NIST ThermoML archive (doi:10.1016/j.tca.2006.04.016).

Assay: xn = mol fraction of the nth substance listed
Details: 101 kPa, Liquid, Vibrating tube method

CN(C)CCCN [N,N-dimethyl-1,3-propanediamine] + O
mass density [kg/m3]
Details	283.15 K	288.15 K	293.15 K	298.15 K	303.15 K	308.15 K	313.15 K	318.15 K
x2 = 0	825.96	821.56	817.14	812.72	808.28	803.83	799.38	794.9
x2 = 0.0403	829.01	824.62	820.21	815.8	811.37	806.92	802.47	797.99
x2 = 0.0811	832.1	827.73	823.33	818.92	814.5	810.07	805.61	801.14
x2 = 0.1198	835.2	830.84	826.46	822.07	817.65	813.22	808.78	804.31
x2 = 0.16	838.61	834.27	829.9	825.51	821.11	816.69	812.24	807.78
x2 = 0.1996	842.14	837.81	833.45	829.08	824.69	820.27	815.84	811.38
x2 = 0.2498	846.96	842.65	838.31	833.95	829.57	825.17	820.74	816.29
x2 = 0.2998	852.16	847.87	843.54	839.2	834.84	830.45	826.04	821.59
x2 = 0.3499	857.74	853.47	849.16	844.84	840.49	836.11	831.71	827.27
x2 = 0.3997	863.92	859.67	855.38	851.07	846.73	842.37	837.97	833.54
x2 = 0.4501	870.78	866.55	862.28	857.98	853.66	849.3	844.91	840.49
x2 = 0.4998	878.37	874.15	869.89	865.61	861.29	856.94	852.56	848.14
x2 = 0.5501	886.96	882.76	878.51	874.24	869.93	865.59	861.21	856.79
x2 = 0.5999	896.46	892.27	888.05	883.78	879.48	875.14	870.76	–
x2 = 0.6498	907.17	902.99	898.77	894.51	890.21	885.88	881.5	–
x2 = 0.7	919.35	915.19	910.98	906.73	902.43	898.1	893.72	–
x2 = 0.7499	932.79	928.64	924.44	920.2	915.92	911.6	907.23	–
x2 = 0.8	947.49	943.36	939.18	934.96	930.71	926.42	922.09	–
x2 = 0.84	959.97	955.86	951.72	947.55	943.35	939.13	934.86	–
x2 = 0.8799	972.18	968.2	964.2	960.18	956.14	952.08	947.99	–
x2 = 0.9	977.57	973.8	970	966.18	962.33	958.45	954.54	–
x2 = 0.92	981.9	978.55	975.13	971.67	968.16	964.59	960.96	–
x2 = 0.94	984.99	982.31	979.51	976.61	973.6	970.49	967.29	–
x2 = 0.9597	987.53	985.64	983.57	981.34	978.95	976.4	973.72	–
x2 = 0.975	990.28	988.99	987.47	985.74	983.82	981.71	979.42	–
x2 = 0.99	994.84	994.04	992.95	991.63	990.07	988.31	986.35	–
